In the supplement of paper PMC10307832:

How the values were obtained:
Experiment in all cases: relative viability (nuclei count vs DMSO), 5 days (fraction); higher = more cells survive
[1] = compound: C1COCCN1C2=NC(=NC3=C2OC4=C3C=CC=N4)C5=CC(=CC=C5)NC(=O)C6=CN=C(C=C6)N + CC(C)C[C@H](NC(=O)[C@H](Cc1ccccc1)NC(=O)c1cnccn1)B(O)O [Bortezomib] (partner 0.002 µM)
How it was run: (§1)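 Lung cancer cell lines in 1536-well plates got either a single drug or a fixed anchor-drug dose together with five library-drug doses (not always all listed) in √10 steps, by pin tool, on the day after seeding. Nuclei were counted after 5 days, and relative viability is the treated-to-vehicle ratio of nuclei counts. Values are medians of duplicate plates.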

[2] = compound: C1COCCN1C2=NC(=NC3=C2OC4=C3C=CC=N4)C5=CC(=CC=C5)NC(=O)C6=CN=C(C=C6)N + Cc1cc(Nc2cc(N3CCN(C)CC3)nc(Sc3ccc(NC(=O)C4CC4)cc3)n2)n[nH]1 [Tozasertib] (partner 0.1 µM)
How it was run: as §1

[3] = compound: CN1CCC(CNc2ccc3ncc(-c4cccc(OC(F)(F)F)c4)n3n2)CC1 [SGI-1776] + N=C(N)NC(=N)NCCc1ccccc1 [Phenformin] (partner 250 µM)
How it was run: as §1

[4] = compound: CN1CCC(CNc2ccc3ncc(-c4cccc(OC(F)(F)F)c4)n3n2)CC1 [SGI-1776] + Nc1ncn([C@H]2C[C@H](O)[C@@H](CO)O2)c(=O)n1 [Decitabine] (partner 2 µM)
How it was run: as §1

Row | Cell Line | relative viability ([1]; first compound 0.02 µM) | relative viability ([1]; first compound 0.06325 µM) | relative viability ([1]; first compound 0.2 µM) | relative viability ([1]; first compound 0.6325 µM) | relative viability ([1]; first compound 2 µM) | relative viability ([2]; first compound 0.02 µM) | relative viability ([2]; first compound 0.06325 µM) | relative viability ([2]; first compound 0.2 µM) | relative viability ([2]; first compound 0.6325 µM) | relative viability ([2]; first compound 2 µM) | relative viability ([3]; first compound 0.08 µM) | relative viability ([3]; first compound 0.8 µM) | relative viability ([3]; first compound 2.53 µM) | relative viability ([3]; first compound 8 µM) | relative viability ([4]; first compound 0.08 µM) | relative viability ([4]; first compound 0.8 µM) | relative viability ([4]; first compound 2.53 µM) | relative viability ([4]; first compound 8 µM)
1 | BEN | 0.961 | 0.738 | 0.764 | 0.761 | 0.711 | 0.593 | 0.444 | 0.488 | 0.513 | 0.386 | 0.282 | 0.269 | 0.303 | 0.306 | 0.733 | 0.711 | 0.635 | 0.554
2 | COR-L23 | 1.13 | 1.18 | 1.08 | 1.13 | 0.474 | 0.219 | 0.223 | 0.143 | 0.181 | 0.159 | 0.488 | 0.479 | 0.444 | 0.358 | 0.445 | 0.456 | 0.466 | 0.342
3 | COR-L 105 | 0.655 | 0.872 | 0.657 | 0.66 | 0.474 | 0.325 | 0.352 | 0.329 | 0.359 | 0.31 | 0.559 | 0.512 | 0.452 | 0.315 | 0.75 | 0.705 | 0.737 | 0.544
4 | ChaGo-K-1 | 0.938 | 1.01 | 0.568 | 1.12 | 0.746 | 0.217 | 0.23 | 0.197 | 0.228 | 0.224 | 0.491 | 0.526 | 0.458 | 0.408 | 0.56 | 0.542 | 0.558 | 0.47
5 | EKVX | 1.09 | 1.19 | 1.02 | 1.11 | 0.585 | 0.396 | 0.391 | 0.34 | 0.408 | 0.236 | 0.237 | 0.241 | 0.24 | 0.241 | 0.291 | 0.397 | 0.355 | 0.305
6 | EMC-BAC-2 | 1.1 | 1.14 | 1.06 | 1 | 0.784 | 0.302 | 0.289 | 0.26 | 0.299 | 0.303 | 0.517 | 0.475 | 0.469 | 0.419 | 0.964 | 0.994 | 1.08 | 0.915
7 | EPLC-272H | 0.965 | 0.994 | 0.816 | 0.931 | 0.558 | 0.249 | 0.173 | 0.175 | 0.223 | 0.199 | 0.261 | 0.326 | 0.352 | 0.246 | 0.371 | 0.365 | 0.395 | 0.322
8 | H3255 | 0.622 | 0.718 | 0.687 | 0.805 | 0.611 | 0.779 | 0.639 | 0.736 | 0.847 | 0.957 | 0.372 | 0.391 | 0.331 | 0.325 | 0.609 | 0.582 | 0.654 | 0.487
9 | HARA | 1.14 | 1.35 | 1.24 | 1 | 0.875 | 0.0879 | 0.0809 | 0.112 | 0.0875 | 0.125 | 0.532 | 0.337 | 0.354 | 0.318 | 0.574 | 0.72 | 0.529 | 0.448
10 | HCC-15 | 1.03 | 1.04 | 0.994 | 1.05 | 0.677 | 0.462 | 0.438 | 0.19 | 0.205 | 0.208 | 0.45 | 0.417 | 0.372 | 0.343 | 0.593 | 0.692 | 0.593 | 0.414
11 | HCC-44 | 0.933 | 1 | 0.849 | 0.943 | 0.726 | 0.882 | 1.04 | 0.829 | 0.766 | 0.546 | 0.197 | 0.174 | 0.151 | 0.125 | 0.964 | 0.938 | 0.941 | 0.921
12 | HCC-78 | 0.394 | 0.61 | 0.555 | 0.444 | 0.497 | 0.394 | 0.427 | 0.432 | 0.367 | 0.24 | 0.779 | 0.775 | 0.695 | 0.592 | 0.714 | 0.739 | 0.636 | 0.657
13 | HCC-366 | 1.43 | 1.23 | 1.09 | 1.11 | 0.525 | 0.0782 | 0.144 | 0.0599 | 0.0546 | 0.0428 | 0.61 | 0.527 | 0.564 | 0.431 | 0.335 | 0.382 | 0.373 | 0.316
14 | HCC-827 | 1.07 | 1.07 | 1.17 | 1.15 | 1.08 | 0.415 | 0.435 | 0.441 | 0.438 | 0.343 | 0.412 | 0.424 | 0.459 | 0.301 | 0.32 | 0.391 | 0.411 | 0.295
15 | HOP-62 | 0.743 | 0.848 | 0.897 | 0.967 | 0.291 | 0.358 | 0.396 | 0.337 | 0.312 | 0.225 | 0.728 | 0.616 | 0.704 | 0.623 | 0.214 | 0.221 | 0.214 | 0.242
16 | LC-2-ad | 1.09 | 1.05 | 0.998 | 1.03 | 0.898 | 0.428 | 0.499 | 0.46 | 0.473 | 0.392 | 0.572 | 0.554 | 0.667 | 0.362 | 0.806 | 0.811 | 0.737 | 0.779
17 | LCLC-97TM1 | 0.704 | 0.635 | 0.499 | 0.802 | 0.233 | 0.266 | 0.214 | 0.155 | 0.405 | 0.261 | 0.487 | 0.434 | 0.465 | 0.456 | 0.234 | 0.206 | 0.26 | 0.236
18 | LCLC-103H | 0.969 | 1.24 | 1 | 0.978 | 0.722 | 0.537 | 0.511 | 0.471 | 0.46 | 0.35 | 0.371 | 0.325 | 0.323 | 0.281 | 0.738 | 0.656 | 0.762 | 0.69
